Source: patent publication US8653285B2 (Nippon Zoki Pharmaceutical Co., Ltd., priority 2008, dated 2014)
Structures can show the parent of a compound that is named as a salt.

Biological target: human histamine H1 receptor (Homo sapiens, UniProt P35367)
Assay: In vitro human histamine H1 receptor binding experiment ([3H]pyrilamine, HEK293A cells stably expressing the receptor)
Conditions: [3H]pyrilamine 3 nmol/L, room temperature 60 minutes
Experimental: Recombinant human histamine H1 receptor plasmid (prepared by Invitrogen) was transfected to HEK293A cells with Lipofectamine 2000 (Invitrogen). Cells stably expressing human histamine H1 receptor were screened with Geneticin (Invitrogen). The cells were continued to be cultured using a Dulbecco's Modified Eagle Medium containing 10% fetal bovine serum, 0.1 mmol/L MEM Non-Essential Amino Acids Solution, 2 mmol/L L-glutamine and 0.7 mg/mL Geneticin in a 5% CO2 incubator at 37° C. The cells stably expressing human histamine H1 receptor were prepared using 50 mmol/L Tris-HCl (pH 7.5) (hereinafter referred to as buffer) containing 0.1% bovine serum albumin, so as to have a concentration of 3×10^6 cells/mL, to give a cell sample preparation. Fifty microliters of the buffer, 50 μL of a test substance solution at various concentrations, and 50 μL of [^3H]pyrilamine solution (final concentration: 3 nmol/L) were added to each of the wells on the 96-well plate, and stirred, and 100 μL of the cell sample preparation was then added thereto (at a concentration of 3×10^5 cells/well) to initiate the reaction.
The cells were incubated at room temperature for 60 minutes, and then filtered on UniFilter GF/C plate (Packard) immersed in 0.5% polyethyleneimine using a cell harvester (IH-110, INNOTECH CORPORATION), to stop the reaction, and the plate was washed with the buffer. The plate after washing was sufficiently dried, and 20 μL of a scintillator (MaxiLight, manufactured by Hidex) was added thereto, and count per minute (cpm) was measured with a multi-labeled microplate reader (Plate Chameleo II, Hidex). The nonspecific binding was cpm in a case where 30 μmol/L pyrilamine was added. The experiments were carried out at n=3, and at least repeated 3 times.

Sequence of human histamine H1 receptor (P35367 whole entry): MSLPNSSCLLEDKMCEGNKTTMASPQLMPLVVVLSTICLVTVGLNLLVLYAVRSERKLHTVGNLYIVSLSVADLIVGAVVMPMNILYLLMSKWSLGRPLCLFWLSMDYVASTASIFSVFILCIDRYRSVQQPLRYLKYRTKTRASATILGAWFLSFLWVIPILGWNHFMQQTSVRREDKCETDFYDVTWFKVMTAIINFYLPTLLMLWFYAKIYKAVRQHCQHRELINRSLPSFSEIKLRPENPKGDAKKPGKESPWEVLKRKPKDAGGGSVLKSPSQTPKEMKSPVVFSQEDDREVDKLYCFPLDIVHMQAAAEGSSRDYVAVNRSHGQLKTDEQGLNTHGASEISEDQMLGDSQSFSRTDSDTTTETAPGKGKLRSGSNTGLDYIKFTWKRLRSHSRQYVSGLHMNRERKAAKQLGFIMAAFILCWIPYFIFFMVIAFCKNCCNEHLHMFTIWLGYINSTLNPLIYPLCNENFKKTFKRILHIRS

Structure (SMILES) | IC50
CCOC(=O)c1ccc2c(c1)C(=CCCN(C)C)c1sccc1CO2 [Compound 3, Ethyl (E,Z)-4-(3-dimethylaminopropylidene)-4,10-dihydro-9-oxa-3-thiabenzo[f]azulene-6-carboxylate hydrochloride] | 22.2 nM
CN(C)CCC=C1c2ccccc2CCc2sc(C(=O)NCCO)cc21 [Compound 9, (E,Z)-4-(3-Dimethylaminopropylidene)-9,10-dihydro-4H-1-thiabenzo[f]azulene-2-carboxylic-(2-hydroxyethyl)amide hydrochloride] | 55.7 nM
CCOC(=O)/C=C/c1ccc2c(c1)/C(=C/CCN(C)C)c1sccc1CO2 [Compound 13, Ethyl (E,Z)-3-[4-(3-dimethylaminopropylidene)-4,10-dihydro-9-oxa-3-thiabenzo[f]azulen-6-yl]acrylate hydrochloride] | 32.4 nM
CCOC(=O)C(C)(C)c1ccc2c(c1)C(=CCCN(C)C)c1sccc1CO2 [Compound 21, Ethyl (E,Z)-2-[4-(3-dimethylaminopropylidene)-4,10-dihydro-9-oxa-3-thiabenzo[f]azulen-6-yl]-2-methylpropionate hydrochloride] | 74.7 nM
CN(C)CCC=C1c2ccccc2CCc2sc(C(C)(C)C(=O)O)cc21 [Compound 23, (E,Z)-2-[4-(3-Dimethylaminopropylidene)-9,10-dihydro-4H-1-thiabenzo[f]azulen-2-yl]-2-methylpropionic acid] | 74.6 nM
CN(CC/C=C1\c2cc(CC(=O)O)ccc2OCc2ccsc21)Cc1ccccc1 [Compound 40] | 19.1 nM
O=C(O)Cc1ccc2c(c1)/C(=C\CCNCc1ccccc1)c1sccc1CO2 [Compound 42, (E)-[4-(3-Benzylaminopropylidene)-4,10-dihydro-9-oxa-3-thiabenzo[f]azulen-6-yl]acetic acid] | 99.8 nM
O=C(O)Cc1ccc2c(c1)/C(=C\CCN1CCN(c3ccccc3)CC1)c1sccc1CO2 [Compound 54, (E)-{4-[3-(4-Phenylpiperadin-1-yl)propylidene]-4,10-dihydro-9-oxa-3-thiabenzo[f]azulen-6-yl}acetic acid] | 10.9 nM

The remaining lines, values ahead:

IC50 | Structure (SMILES)
19.6 nM | O=C(O)Cc1ccc2c(c1)/C(=C/CCN1CCN(c3ccccc3)CC1)c1sccc1CO2 [Compound 55, (Z)-{4-[3-(4-Phenylpiperadin-1-yl)propylidene]-4,10-dihydro-9-oxa-3-thiabenzo[f]azulen-6-yl}acetic acid]
29 nM | CN(C)CC/C=C1\c2cc(CCC(=O)O)ccc2OCc2sccc21 [Compound 56, (E)-3-[4-(3-Dimethylaminopropylidene)-4,10-dihydro-9-oxa-1-thiabenzo[f]azulen-6-yl]propionic acid hydrochloride]
60.5 nM | O=C(O)Cc1ccc2c(c1)/C(=C\CCN1CCC(=O)CC1)c1sccc1CO2 [Compound 62, (E)-{4-[3-(4-Oxopiperidin-1-yl)propylidene]-4,10-dihydro-9-oxa-3-thiabenzo[f]azulen-6-yl}acetic acid]
8.56 nM | CN(C)CC/C=C1\c2cc(CC(=O)O)ccc2CCc2ccsc21 [Compound 64, (E)-[4-(3-Dimethylaminopropylidene)-9,10-dihydro-4H-3-thiabenzo[f]azulen-6-yl]acetic acid]
14 nM | CN(C)CC/C=C1/c2cc(CC(=O)O)ccc2CCc2ccsc21 [Compound 65, (Z)-[4-(3-Dimethylaminopropylidene)-9,10-dihydro-4H-3-thiabenzo[f]azulen-6-yl]acetic acid hydrochloride]
31.2 nM | O=C(O)Cc1ccc2c(c1)/C(=C\CCN1CCC(N3CCCCC3)CC1)c1sccc1CO2 [Compound 66, (E)-{4-[3-([1,4′]Bipiperidin-1′-yl)propylidene]-4,10-dihydro-9-oxa-3-thiabenzo[f]azulen-6-yl}acetic acid diformate]
45.2 nM | O=C(O)Cc1ccc2c(c1)C(=CCCN1CCSCC1)c1sccc1CO2 [Compound 68, (E,Z)-{4-[3-(Thiomorpholin-4-yl)propylidene]-4,10-dihydro-9-oxa-3-thiabenzo[f]azulen-6-yl}acetic acid]
